# Experimental data published in US11896592B2, “Certain triazolopyridines and triazolopyrazines, compositions thereof and methods of use therefor” (Hutchison Medipharma Limited, priority 2009, dated 2024).
# Biological target: T1, Recombinant human Met (c-Met) (Homo sapiens, UniProt P08581)
# T1 construct: purchased Invitrogen PV3143
# Assay: Inhibition of c-Met kinase activity using Transcreener FP assay
# Assay type: biochemical
# Conditions: Poly E4Y substrate, 28° C. 45 min, read-out: IC50, inhibition of c-Met kinase activity
# Procedure: Compound dilution: dilute test articles to 5 folds of the testing concentration using 20% DMSO.
# The mixture is kept on ice until use;
# Prepare ATP standard curve stock as following:
# 3. Enzymatic reaction: in 96-well reaction plate
# Add 5 μL of test article or 5 μL of 20% DMSO or 5 μL of 500 mM EDTA;
# Add 10 μL of Enzyme/Substrate stock;
# Add 10 μL of ATP Diluent to begin the enzyme reaction and mix on plate shaker;
# Add 5 μL of 20% DMSO, 10 μL of assay buffer and 10 μL of ATP standard curve stock into standard curve wells;
# Gently shake at 28° C. for 45 min.
# 4. Stop reaction and detect ADP
# Prepare Detection Mix: According to the procedures described in the Assay kit, Alexa633 tracer, ADP antibody and stop & detect buffer were added into H2O and mixed thoroughly. Prepare Tracer Only control: According to the procedures described in the Assay kit, ADP Alexa633 tracer and stop & detect buffer were added to H2O and mixed throughly.
# Prepare No Tracer control: According to the procedures described in the Assay kit, the stop & detect buffer was diluted with H2O;
# Add 25 μL of detection mix, Tracer Only control and No Tracer control into corresponding wells, respectively;
# The reaction plate was gently shaken at 28° C. for 1 h;
# Florescence polarization (FP) was measured on TECAN F500. Excitation wavelength: 610 nm, Emission wavelength: 670 nm.
# Compound well [ADP] represents the ADP concentration of the compound well. Positive control well [ADP] represents the ADP concentration of the 20% DMSO well. Conversion of mP value to ADP concentration is based on the formula which is determined by standard curve.
# IC50: calculated using XL-Fit 2.0 software.
# T1 sequence (P08581 956-1390 limits assumed): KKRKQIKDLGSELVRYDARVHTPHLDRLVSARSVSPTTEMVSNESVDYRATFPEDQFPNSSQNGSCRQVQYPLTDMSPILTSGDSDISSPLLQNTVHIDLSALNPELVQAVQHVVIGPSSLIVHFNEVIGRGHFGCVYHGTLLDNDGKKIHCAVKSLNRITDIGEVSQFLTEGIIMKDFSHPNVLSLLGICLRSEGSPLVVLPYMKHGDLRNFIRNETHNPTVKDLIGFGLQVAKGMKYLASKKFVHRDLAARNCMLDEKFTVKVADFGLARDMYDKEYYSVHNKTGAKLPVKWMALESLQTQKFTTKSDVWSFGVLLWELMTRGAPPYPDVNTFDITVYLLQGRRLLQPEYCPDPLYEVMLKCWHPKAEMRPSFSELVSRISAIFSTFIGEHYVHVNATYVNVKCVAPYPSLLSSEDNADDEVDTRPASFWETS
row,Compound,IC50 [nM]
1,COc1ccnc(Nc2cnc3nnn(Cc4ccc5ncccc5c4)c3n2)c1 [Compound 183],1 to 100
2,Brc1cnc2nnn(Cc3cc4[nH]ncc4s3)c2n1 [Compound 295],1 to 100
3,c1cc2sc(Cn3nnc4ncc(-c5cnn(C6CCNCC6)c5)nc43)cc2cn1 [Compound 18],100 to 1000
4,c1ccc(Nc2cnc3nnn(Cc4ccc5ncccc5c4)c3n2)nc1 [Compound 168],1 to 100
5,COCCOc1cc(-c2ccc3nnn(Cc4ccc5ncccc5c4)c3n2)ccn1 [Compound 107],100 to 1000
6,c1cnc2ccc(Cn3nnc4ncc(Nc5ccnc(N6CCOCC6)c5)nc43)cc2c1 [Compound 230],1 to 100
7,Cn1cc(-c2cnc3nnn(Cc4ccc5ncsc5n4)c3n2)cn1 [Compound 289],100 to 1000
8,CC1N=CC(c2cnc3nnn(Cc4cc5cccnc5s4)c3n2)=N1 (stereo not drawn) [Compound 2],100 to 1000
9,c1cnc2ccc(Cn3nnc4ccc(-c5cnn(C6CCOCC6)c5)nc43)cc2c1 [Compound 118],100 to 1000
10,COCCNc1cc(-c2ccc3nnn(Cc4ccc5ncccc5c4)c3n2)ccn1 [Compound 110],100 to 1000
11,OCCn1cc(Nc2cnc3nnn(Cc4ccc5ncsc5c4)c3n2)cn1 [Compound 240],1 to 100
12,COCCOc1cccc(Nc2cnc3nnn(Cc4ccc5ncccc5c4)c3n2)c1 [Compound 202],1 to 100
13,Cc1cc(Nc2cnc3nnn(Cc4ccc5ncccc5c4)c3n2)n[nH]1 [Compound 191],1 to 100
14,Cc1cncc(Nc2cnc3nnn(Cc4ccc5ncccc5c4)c3n2)c1 [Compound 158],1 to 100
15,c1cnc2ccc(Cn3nnc4ccc(-n5ccnc5)nc43)cc2c1 [Compound 214],1 to 100
16,Cn1cc(-c2ccc3nnn(Cc4cc5cnccc5s4)c3n2)cn1 [Compound 71],100 to 1000
17,COCCn1cc(-c2cnc3nnn(Cc4cc5cnccc5s4)c3n2)cn1 [Compound 23],100 to 1000
18,COCCNc1cncc(Nc2cnc3nnn(Cc4ccc5ncccc5c4)c3n2)c1 [Compound 203],1 to 100
19,OCCn1cc(-c2ccc3nnn(Cc4ccc5nccn5n4)c3n2)cn1 [Compound 273],100 to 1000
20,CCn1ncc2sc(Cn3nnc4ncc(-c5cnn(CCO)c5)nc43)cc21 [Compound 38],100 to 1000
21,Cc1cccc(N(C)c2cnc3nnn(Cc4ccc5ncccc5c4)c3n2)n1 [Compound 154],100 to 1000
22,OCCn1cc(-c2cnc3nnn(Cc4csc5ncccc45)c3n2)cn1 [Compound 30],100 to 1000
23,COc1cc(Nc2cnc3nnn(Cc4ccc5ncccc5c4)c3n2)ccn1 [Compound 195],1 to 100
24,N#Cc1cc(Nc2ccc3nnn(Cc4ccc5ncccc5c4)c3n2)ccn1 [Compound 215],1 to 100
25,Cc1cc(Nc2ccc3nnn(Cc4ccc5ncccc5c4)c3n2)ccn1 [Compound 235],1 to 100
26,OC1CCN(c2ccc3nnn(Cc4ccc5ncccc5c4)c3n2)C1 (stereo not drawn) [Compound 246],1 to 100

row,Compound,IC50 [nM]
1,Brc1cnc2nnn(Cc3ccc4ncnn4c3)c2n1 [Compound 284],100 to 1000
2,OCCn1cc(-c2ccc3nnn(Cc4ccc5ncnn5c4)c3n2)cn1 [Compound 126],100 to 1000
3,CS(=O)(=O)n1cc(-c2ccc3nnn(Cc4ccc5ncccc5c4)c3n2)cn1 [Compound 150],1 to 100
4,"COCc1cnc2ccc(C(C)n3nnc4ncc(-c5cnn(C)c5)nc43)cn12 (racemic) [Compound 318, 1-(1-(3-(methoxymethyl)imidazo[1,2-a]pyridin-6-yl)ethyl)-6-(1-methyl-1H-pyrazol-4-yl)-1H-[1,2,3]triazolo[4,5-b]pyrazine]",1 to 100
5,CNc1ccc(-c2ccc3nnn(Cc4ccc5ncccc5c4)c3n2)cn1 [Compound 76],1 to 100
6,COc1cncc(Nc2cnc3nnn(Cc4ccc5ncccc5c4)c3n2)c1 [Compound 156],1 to 100
7,CC(=O)Nc1ccc(-c2ccc3nnn(Cc4ccc5ncccc5c4)c3n2)cn1 [Compound 91],1 to 100
8,CS(=O)(=O)Nc1cccc(-c2ccc3nnn(Cc4ccc5ncccc5c4)c3n2)c1 [Compound 85],1 to 100
9,Nc1ccc(-c2ccc3nnn(Cc4ccc5ncccc5c4)c3n2)cn1 [Compound 62],1 to 100
10,CC(c1ccc2ncsc2c1)n1nnc2ncc(-c3cnn(C)c3)nc21 (stereo not drawn) [Compound 19],1 to 100
11,COc1cccc(-c2ccc3nnn(Cc4ccc5ncccc5c4)c3n2)c1 [Compound 88],1 to 100
12,CC(c1cc2[nH]ncc2s1)n1nnc2ncc(-c3cnn(C)c3)nc21 (stereo not drawn) [Compound 299],100 to 1000
13,COc1ccc(-c2ccc3nnn(Cc4ccc5ncccc5c4)c3n2)cn1 [Compound 70],1 to 100
14,CC(C)OCc1cnc2ccc(Cn3nnc4ncc(-c5cnn(C)c5)nc43)cn12 [Compound 323],1 to 100
15,COCCn1cc(-c2cnc3nnn(Cc4cc5[nH]ncc5s4)c3n2)cn1 [Compound 45],1 to 100
16,c1cnc2ccc(Cn3nnc4ccc(Nc5ccncc5)nc43)cc2c1 [Compound 236],100 to 1000
17,O[C@@H]1CCC[C@H]1Nc1ccc2nnn(Cc3ccc4ncccc4c3)c2n1 [Compound 241],100 to 1000
18,COc1cccnc1Nc1cnc2nnn(Cc3ccc4ncccc4c3)c2n1 [Compound 213],1 to 100
19,COc1ccncc1Nc1cnc2nnn(Cc3ccc4ncccc4c3)c2n1 [Compound 210],1 to 100
20,c1n[nH]cc1-c1cnc2nnn(Cc3cc4[nH]ncc4s3)c2n1 [Compound 44],1 to 100
21,COCCOc1cccc(Nc2cnc3nnn(Cc4ccc5ncccc5c4)c3n2)n1 [Compound 227],1 to 100
22,COCc1cnc2ccc([C@H](C)n3nnc4ncc(-c5cnn(C)c5)nc43)cn12 [Compound 324],1 to 100
23,COCc1cnc2ccc(Cn3nnc4ncc(-c5cnn(CCO)c5)nc43)cn12 [Compound 309],1 to 100
24,OC1(CNc2ccc3nnn(Cc4ccc5ncccc5c4)c3n2)CCCCC1 [Compound 247],100 to 1000
25,c1c[nH]c(-c2ccc3nnn(Cc4ccc5ncccc5c4)c3n2)c1 [Compound 64],100 to 1000
26,c1csc(-c2cnc3nnn(Cc4cc5cccnc5s4)c3n2)c1 [Compound 6],100 to 1000

row,Compound,IC50 [nM]
1,c1nn(C2CCNCC2)cc1-c1cnc2nnn(Cc3cc4[nH]ncc4s3)c2n1 [Compound 17],100 to 1000
2,Cc1cccc(Oc2cnc3nnn(Cc4ccc5ncccc5c4)c3n2)n1 [Compound 255],1 to 100
3,c1ccc(Oc2cnc3nnn(Cc4ccc5ncccc5c4)c3n2)nc1 [Compound 257],100 to 1000
4,Cn1cc(-c2cnc3nnn(Cc4ccc5ncsc5c4)c3n2)cn1 [Compound 11],1 to 100
5,CCCn1cc(-c2ccc3nnn(Cc4ccc5ncccc5c4)c3n2)cn1 [Compound 146],1 to 100
6,OCCn1cc(-c2ccc3nnn(Cc4cc5cnccc5s4)c3n2)cn1 [Compound 74],100 to 1000
7,COc1cc(Nc2ccc3nnn(Cc4ccc5ncccc5c4)c3n2)ccn1 [Compound 179],1 to 100
8,COCCNc1ccnc(Nc2cnc3nnn(Cc4ccc5ncccc5c4)c3n2)c1 [Compound 204],100 to 1000
9,OCCn1cc(-c2cnc3nnn(Cc4ccn5nccc5n4)c3n2)cn1 [Compound 288],100 to 1000
10,Cn1cc(-c2ccc3nnn(Cc4cc5[nH]ncc5s4)c3n2)cn1 [Compound 132],1 to 100
11,OCCn1cc(-c2ccc3nnn(Cc4ccc5ncsc5c4)c3n2)cn1 [Compound 73],100 to 1000
12,Cc1cccc(Nc2cnc3nnn(Cc4ccc5ncccc5c4)c3n2)n1 [Compound 157],1 to 100
13,OCCn1cc(-c2ccc3nnn(Cc4c[nH]c5ncccc45)c3n2)cn1 [Compound 86],1 to 100
14,N#Cc1ccc(-c2cnc3nnn(Cc4ccn5nccc5c4)c3n2)cn1 [Compound 302],1 to 100
15,FC(F)(F)c1cccc(Nc2cnc3nnn(Cc4ccc5ncccc5c4)c3n2)n1 [Compound 221],1 to 100
16,c1cncc(Oc2cnc3nnn(Cc4ccc5ncccc5c4)c3n2)c1 [Compound 258],1 to 100
17,N#Cc1ccc(-c2cnc3nnn(Cc4cc5[nH]ncc5s4)c3n2)cn1 [Compound 282],1 to 100
18,CCn1cc(-c2ccc3nnn(Cc4ccc5ncccc5c4)c3n2)cn1 [Compound 95],1 to 100
19,CCOCc1cnc2ccc(Cn3nnc4ncc(-c5cnn(C)c5)nc43)cn12 [Compound 321],1 to 100
20,OCCn1cc(-c2ccc3nnn(Cc4ccc5ncccc5c4F)c3n2)cn1 [Compound 130],1 to 100
21,OCCn1cc(-c2cnc3nnn(Cc4ccc5nccn5n4)c3n2)cn1 [Compound 281],1 to 100
22,OCC1CCN(c2ccc3nnn(Cc4ccc5ncccc5c4)c3n2)CC1 [Compound 245],1 to 100
23,COCCNc1ccc(-c2ccc3nnn(Cc4ccc5ncccc5c4)c3n2)cn1 [Compound 82],1 to 100
24,CCn1cc(-c2cnc3nnn(Cc4cc5c(cnn5CC)s4)c3n2)cn1 [Compound 37],100 to 1000
25,OCCn1cnc(-c2ccc3nnn(Cc4ccc5ncccc5c4)c3n2)c1 [Compound 109],100 to 1000
26,CC(C)n1cc(-c2cnc3nnn(Cc4ccc5nccn5c4)c3n2)cn1 [Compound 34],1 to 100
